Test systems include HT29 colon; SK-MEL-5 melanoma; SF-268 CNS; HCT-116 colon; UACC-257 melanoma; K-562 leukemia; NCI-H460 lung; EKVX NSCLC; RPMI-8226 leukemia; MDA-MB-231 breast.
Holding throughout (assay): NCI tumour cell line growth inhibition, 48 h

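Dose response: 5 concentrations. Exposure: 48 h. Format: 96-well plates. Endpoint: linear interpolation; highest concentration if not reached. GI50: concentration for 50% inhibition of growth. At the TGI there is no net growth.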

In the case of `Nc1nc(SN=Nc2ccc(S(N)(=O)=O)cc2)c2[nH]cnc2n1`, the GI50 in the experiment with HT29 colon is 0.79 µM; in the experiment with SK-MEL-5 melanoma it was 1.26 µM; with SF-268 CNS it was 0.563 µM; in the experiment with HCT-116 colon, 0.374 µM; in the experiment with UACC-257 melanoma, 1.62 µM; in the experiment with K-562 leukemia, 0.299 µM. Besides, the GI50 with NCI-H460 lung was 0.384 µM; in the experiment with EKVX NSCLC, 0.714 µM; in the experiment with RPMI-8226 leukemia it was 0.283 µM; with MDA-MB-231 breast, 0.722 µM. Besides, the TGI in the experiment with HT29 colon is greater than 100 µM; with SK-MEL-5 melanoma, 5.97 µM; in the experiment on SF-268 CNS, greater than 100 µM; with HCT-116 colon, 15.1 µM; with UACC-257 melanoma it was greater than 100 µM; with K-562 leukemia, greater than 100 µM. The TGI with NCI-H460 lung is 13 µM; in the experiment on EKVX NSCLC it was greater than 100 µM; with RPMI-8226 leukemia, 3.33 µM; with MDA-MB-231 breast, greater than 100 µM.
Take `N=C(N)SCc1cccc(-c2nc3ccccc3c(=O)o2)c1`: the TGI in the experiment on HT29 colon, in the experiment on SK-MEL-5 melanoma, with SF-268 CNS, with HCT-116 colon, in the experiment on UACC-257 melanoma and with K-562 leukemia was greater than 100 µM throughout. Also, the TGI with NCI-H460 lung, with EKVX NSCLC, in the experiment on RPMI-8226 leukemia and in the experiment on MDA-MB-231 breast was greater than 100 µM throughout.
For `C=C1C(=O)O[C@H]2[C@H]1CC/C(COC(=O)c1ccc(Cl)nc1)=C\CC[C@@]1(C)O[C@@H]21`, the GI50 in the experiment with HT29 colon was 1.66 µM; with SK-MEL-5 melanoma, 3.23 µM; in the experiment on SF-268 CNS it was 2.62 µM; in the experiment on HCT-116 colon, 1.45 µM; in the experiment on UACC-257 melanoma, 1.83 µM; with K-562 leukemia it was 2.19 µM. In addition, the GI50 in the experiment on NCI-H460 lung was 5.19 µM; in the experiment with EKVX NSCLC, 3.41 µM; with RPMI-8226 leukemia it was 1.58 µM; with MDA-MB-231 breast, 2.4 µM. For the same molecule, the TGI in the experiment with HT29 colon was determined as 4.11 µM; with SK-MEL-5 melanoma, 11.1 µM; in the experiment with SF-268 CNS, 9.49 µM; with HCT-116 colon, 2.84 µM; with UACC-257 melanoma it was 4.17 µM; with K-562 leukemia, 12.2 µM. The TGI was found to be 21.4 µM with NCI-H460 lung, 13.6 µM with EKVX NSCLC, 4.87 µM with RPMI-8226 leukemia and 5.7 µM in the experiment on MDA-MB-231 breast.
For `COc1ccc2c(c1)C(C)Cc1c(ncnc1-n1c(C)nc3ccccc31)N2C` (stereo not given), the GI50 in the experiment on HT29 colon is 2.81 µM; with SK-MEL-5 melanoma it was 3.42 µM; in the experiment on SF-268 CNS it was 11.5 µM; in the experiment with HCT-116 colon it was 3.46 µM; in the experiment with UACC-257 melanoma it was 14.8 µM; in the experiment on K-562 leukemia, 0.452 µM. Also, the GI50 is 3.85 µM in the experiment with NCI-H460 lung, 3.94 µM with EKVX NSCLC, 3.96 µM with RPMI-8226 leukemia and 4.56 µM in the experiment on MDA-MB-231 breast. Also, the TGI with HT29 colon was determined as 8.94 µM; in the experiment on SK-MEL-5 melanoma, 13 µM; in the experiment with SF-268 CNS it was 39.7 µM; with HCT-116 colon it was 16.2 µM; in the experiment on UACC-257 melanoma, 33.5 µM; in the experiment with K-562 leukemia, 13.3 µM. Further, the TGI is 14.4 µM in the experiment on NCI-H460 lung, 21.8 µM in the experiment on EKVX NSCLC, 24.3 µM in the experiment with RPMI-8226 leukemia and 28.2 µM in the experiment on MDA-MB-231 breast.
Regarding `COc1ccc(C(=O)COc2cccc(/C=C3\Oc4ccc5ccccc5c4C3=O)c2)cc1`, the GI50 with HT29 colon is 6.92 µM; in the experiment on SK-MEL-5 melanoma it was 10.9 µM; in the experiment with SF-268 CNS, 3.72 µM; in the experiment with HCT-116 colon it was 2.31 µM; in the experiment with UACC-257 melanoma, 14.5 µM; in the experiment on K-562 leukemia it was 1.53 µM. For the same molecule, the GI50 is 20.6 µM in the experiment with NCI-H460 lung, 14.4 µM in the experiment on EKVX NSCLC, 0.345 µM with RPMI-8226 leukemia and 11.9 µM in the experiment on MDA-MB-231 breast. Besides, the TGI with HT29 colon is 44.6 µM; in the experiment with SK-MEL-5 melanoma it was 23.9 µM; in the experiment with SF-268 CNS, 14 µM; in the experiment with HCT-116 colon, 4.94 µM; with UACC-257 melanoma, 32.4 µM; in the experiment on K-562 leukemia, 3.73 µM. Besides, the TGI in the experiment on NCI-H460 lung was determined as 52.6 µM; in the experiment with EKVX NSCLC, 42.8 µM; in the experiment with RPMI-8226 leukemia, 2.01 µM; in the experiment with MDA-MB-231 breast it was 25.6 µM.
As to `NC(CS/C(Cl)=C/Cl)C(=O)O` (stereo not given), the GI50 is 54.7 µM with HT29 colon; 3.11 µM in the experiment with SK-MEL-5 melanoma; greater than 76.5 µM in the experiment with SF-268 CNS; 34.6 µM in the experiment with HCT-116 colon; 23.3 µM with UACC-257 melanoma; 33.4 µM with K-562 leukemia. Also, the GI50 with NCI-H460 lung was 0.427 µM; with EKVX NSCLC it was 31.7 µM; with RPMI-8226 leukemia, 12.5 µM; in the experiment on MDA-MB-231 breast, greater than 100 µM. Besides, the TGI was greater than 100 µM in the experiment on HT29 colon; 12.9 µM with SK-MEL-5 melanoma; greater than 100 µM in the experiment with SF-268 CNS; greater than 100 µM in the experiment with HCT-116 colon; 78.8 µM in the experiment on UACC-257 melanoma; greater than 100 µM with K-562 leukemia. Further, the TGI in the experiment with NCI-H460 lung was 2 µM; with EKVX NSCLC it was greater than 100 µM; with RPMI-8226 leukemia, 74.5 µM; in the experiment with MDA-MB-231 breast, greater than 100 µM.
Consider `O=C(Nc1ccc(-c2ccccc2)cc1)C1CCN(S(=O)(=O)c2ccccc2Cl)CC1`, for which the GI50 with HT29 colon is greater than 100 µM; with SK-MEL-5 melanoma it was 69.3 µM; in the experiment with SF-268 CNS it was 39 µM; with HCT-116 colon, 39.4 µM; with UACC-257 melanoma it was 28.1 µM; in the experiment with K-562 leukemia, 71.8 µM. Besides, the GI50 with NCI-H460 lung is 40.8 µM; with EKVX NSCLC, 73.5 µM; in the experiment on RPMI-8226 leukemia, 42 µM; in the experiment with MDA-MB-231 breast it was 18.2 µM. In addition, the TGI in the experiment on HT29 colon, with SK-MEL-5 melanoma, in the experiment with SF-268 CNS, in the experiment with HCT-116 colon, in the experiment with UACC-257 melanoma and in the experiment with K-562 leukemia was greater than 100 µM in each case. Besides, the TGI in the experiment with NCI-H460 lung was greater than 100 µM; in the experiment with EKVX NSCLC, greater than 100 µM; with RPMI-8226 leukemia it was greater than 100 µM; in the experiment on MDA-MB-231 breast, 47.3 µM.
